Values joined by “and” are separate entries in the source; they are usually repeats but may differ in a detail not shown here. Identical values can stand only once. *1 amine or outer side, *2 acyl side, *3 side chain or, on linkers, in order; H or OH if unused. Where a SMILES comes first, the peptide text is derived from it. Side-chain parts run from the residue outwards. [ ]: non-standard residue; d: D form. dPhe(4-Cl) = N[C@H](Cc1ccc(Cl)cc1)C(=O)O; d2Nal = N[C@H](Cc1ccc2ccccc2c1)C(=O)O; d(hCit) = NC(=O)NCCCC[C@@H](N)C(=O)O; dCit = NC(=O)NCCC[C@@H](N)C(=O)O; dOrn = NCCC[C@@H](N)C(=O)O; CO = O=C([*:1])[*:2]
Tested on: rats
Experiment: edematogenic test of Schmidt, et al.
Format: in vivo, rat
Conditions: 1.5 mg/kg s.c. once a day on two consecutive days; for 1st Day FR (full responders: facial edema with edematous extremities), rats / 1st Day PR (partial responders: edema of the nasal and paranasal area), rats / 1st Day NR (no apparent reaction), rats: day 1; for 1st Day NR (no apparent reaction), rats: observed five hours each day; for 2nd Day FR (full responders: facial edema with edematous extremities), rats / 2nd Day PR (partial responders: edema of the nasal and paranasal area), rats / 2nd Day NR (no apparent reaction), rats: day 2
Procedure: In the edematogenic test of Schmidt, et al. (Contraception, 29, 283-289, 1984), however, a marked difference can be found between the control peptides and the peptides of the present invention. The control peptides produce edema of the face and extremities when administered subcutaneously in rats at doses of 0.75 or 1.25 mg/kg. No such reaction can be observed with the peptides of the present invention when given at a subcutaneous dose of 1.5 mg/kg.
In the tests as run the rats were assigned to three groups of five rats per group per compound tested. Comparison with made with a known prior art compound designated ORG 30276 namely (N-Ac-D-p-Cl-Phe^1,2, D-Trp^3, D-Arg^6, D-Ala^10)-LHRH. The groups were injected subcuntaneously once a day on two consecutive days with the LHRH antagonists at a dose level of 1.5 mg/kg. One control group was injected with diluent only. The rats were observed during five hours each day. Reactions of the rats were classified as follows: NR no apparent reaction, PR partial responders: edema of the nasal and paranasal area, FR full responders: facial edema with edematous extremities.

Row | Molecule | 1st Day FR (full responders: facial edema with edematous extremities), rats | 1st Day PR (partial responders: edema of the nasal and paranasal area), rats | 1st Day NR (no apparent reaction), rats | 2nd Day FR (full responders: facial edema with edematous extremities), rats | 2nd Day PR (partial responders: edema of the nasal and paranasal area), rats | 2nd Day NR (no apparent reaction), rats
1 | CC(=O)N[C@H](Cc1ccc2ccccc2c1)C(=O)N[C@H](Cc1ccc(Cl)cc1)C(=O)N[C@H](Cc1c[nH]c2ccccc12)C(=O)N[C@@H](CO)C(=O)N[C@@H](Cc1ccc(O)cc1)C(=O)N[C@H](CCCNC(N)=O)C(=O)N[C@@H](CC(C)C)C(=O)N[C@@H](CCCNC(=N)N)C(=O)N1CCC[C@H]1C(=O)N[C@H](C)C(N)=O [EX III, Ac-D-Nal(2)-D-Phe(4-Cl)-D-Trp-Ser-Tyr-D-Cit-Leu-Arg-Pro-D-Ala-NH^2] (Ac-[d2Nal][dPhe(4-Cl)][dW]SY[dCit]LRP[dA]-NH2) | 0 | 0 | 8 |  |  | 
2 | CC(=O)N[C@H](Cc1ccc(Cl)cc1)C(=O)N[C@H](Cc1ccc(Cl)cc1)C(=O)N[C@H](Cc1c[nH]c2ccccc12)C(=O)N[C@@H](CO)C(=O)N[C@@H](Cc1ccc(O)cc1)C(=O)N[C@H](CCCNC(=N)N)C(=O)N[C@@H](CC(C)C)C(=O)N[C@@H](CCCNC(=N)N)C(=O)N1CCC[C@H]1C(=O)N[C@H](C)C(N)=O [ORG 30276, (N-Ac-D-p-Cl-Phe^1,2, D-Trp^3, D-Arg^6, D-Ala^10)-LHRH, reference compound] (Ac-[dPhe(4-Cl)][dPhe(4-Cl)][dW]SY[dR]LRP[dA]-NH2) | 0 | 5 and 3 |  | 6 and 3 | 2 and 1 | 
3 | CCNC(=O)NCCC[C@@H](NC(=O)[C@H](Cc1ccc(O)cc1)NC(=O)[C@H](CO)NC(=O)[C@@H](Cc1c[nH]c2ccccc12)NC(=O)[C@@H](Cc1ccc(Cl)cc1)NC(=O)[C@@H](Cc1ccc2ccccc2c1)NC(C)=O)C(=O)N[C@@H](CC(C)C)C(=O)N[C@@H](CCCNC(=N)N)C(=O)N1CCC[C@H]1C(=O)N[C@H](C)C(N)=O [EX IV, Ac-D-Nal(2)-D-Phe(4-Cl)-D-Trp-Ser-Tyr-D-Cit(Et)-Leu-Arg-Pro-D-Ala-NH2] (Ac-[d2Nal][dPhe(4-Cl)][dW]SY[dOrn]([CO-NHEt])LRP[dA]-NH2) | 0 | 0 | 9 | 0 | 0 | 9
4 | CC(=O)N[C@H](Cc1ccc(Cl)cc1)C(=O)N[C@H](Cc1ccc(Cl)cc1)C(=O)N[C@H](Cc1c[nH]c2ccccc12)C(=O)N[C@@H](CO)C(=O)N[C@@H](Cc1ccc(O)cc1)C(=O)N[C@H](CCCCNC(N)=O)C(=O)N[C@@H](CC(C)C)C(=O)N[C@@H](CCCNC(=N)N)C(=O)N1CCC[C@H]1C(=O)N[C@H](C)C(N)=O [EX V, Ac-D-Phe(4-Cl)-D-Phe(4-Cl)-D-Trp-Ser-Tyr-D-Hci-Leu-Arg-Pro-D-Ala-NH2] (Ac-[dPhe(4-Cl)][dPhe(4-Cl)][dW]SY[d(hCit)]LRP[dA]-NH2) | 0 | 0 | 9 | 0 | 1 | 8
5 | Ac-[d2Nal][dPhe(4-Cl)][dW]SY[d(hCit)]RP[dA]-NH2 [EX I] | 0 | 0 | 8 | 0 | 0 | 8
